Results published in PubChem BioAssay (NCI).
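96-well plates; 48 h exposure; 5 concentrations. Endpoints by linear interpolation between flanking doses. Not reached: highest tested concentration assigned. TGI is the concentration that stops growth completely.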

Tested on: LOX IMVI melanoma
Experiment: growth of human tumour cells (NCI), 48 h

Structure (SMILES) | TGI [µM]
CC(=O)O[C@H]1C[C@H]2[C@@H](OC(C)=O)/C=C3\C[C@](C)(C(=O)[C@H](O)C(=C1C)C2(C)C)[C@@H](O)C[C@@H]3OC(=O)[C@H](O)[C@H](c1ccccc1)N(C)C | > 100
Nc1ncnc2c1ccn2C/C=C\CO | > 100
Cc1c([N+](=O)[O-])ccc2c(NCCCN(C)C)ccnc12 | 30.9
N#Cc1nc2ccccc2nc1N1CCN(c2ccc([N+](=O)[O-])cc2)CC1 | > 100
N=C1/C(=C/c2ccc(F)cc2)C(=O)N=C2SC=NN12 | > 100
COC(=O)CC(C#N)(OP1(=O)OC(c2ccccc2)C(C)N1C)c1ccccc1 (configuration not stated) | 53.4
CN1CCN(C(=O)CCNC(=O)Cc2ccc(C(=O)c3ccccc3)cc2)CC1 | > 100
CC(=O)c1cccc(NC(=O)C(=O)NNc2n[nH]c(=S)n2N)c1 | 4.57
O=c1cc(N2CCOCC2)[nH]c(=O)n1-c1ccc(F)cc1 | > 100
O=C(O)CC1NC(/C(=C/c2ccccc2)NC(=O)c2ccccc2)OC1=O (configuration not stated) | 36
COCC1OC(Sc2ccccc2)C(O)C(OC)C1OC (configuration not stated) | > 100
CCCn1c2ccccc2c2ccc3c(c21)C(=O)C=CC3=O | > 10
C=C(CCC/C(C)=C/C=C/[C@]1(C)CCCc2ccoc21)CC(=O)O | > 100
O=C1C2CC=CCC2C(=O)N1n1c(Cc2ccc(Cl)cc2)n[nH]c1=O (configuration not stated) | > 100
N#Cc1c(-c2ccc(Cl)cc2)c2c([nH]c1=O)-c1ccccc1SC2 | 73.9

Tested on: MCF7 breast
Experiment: growth of human tumour cells (NCI), 48 h

Structure (SMILES) | TGI [µM]
C=C1C(=O)C[C@H]2C(=C)C(=O)O[C@@H]2C2C1CC[C@@]2(C)O (some centres not stated) | 36.1
O=C(NC(Cc1c[nH]c2ccccc12)C(=O)Nc1ccc(Br)cc1)OCc1ccccc1 (configuration not stated) | 29.3
COC(=O)C1=C(C)NC2=C(C(=O)c3ccccc32)C1c1cn(-c2ccccc2)nc1-c1ccccc1 (configuration not stated) | > 100
Cc1cc(C)n2nc3nc(N)c(C#N)c(-c4ccccc4)c3c2n1 | > 100
CCCCCCCCCC1(N=[N+]=[N-])C(=O)c2ccccc2N(C)C1=O (configuration not stated) | > 100
CN(Cc1cnc2nc(N)nc(N)c2n1)c1ccc(C(=O)NC(CCC(=O)NCCC(P(=O)(O)O)P(=O)(O)O)C(=O)O)cc1 (configuration not stated) | > 100
C[N+](CCCl)(CCCl)Cc1cccc2cccc([N+](=O)[O-])c12 | > 100
O=C1NC(=O)C(c2c[nH]c3ccccc23)=C1c1cnc[nH]1 | > 100
CC(=O)O[C@H]1C[C@H]2[C@@H](OC(C)=O)/C=C3\C[C@](C)(C(=O)[C@H](O)C(=C1C)C2(C)C)[C@@H](O)C[C@@H]3OC(=O)[C@H](O)[C@H](c1ccccc1)N(C)C | > 100
Nc1ncnc2c1ccn2C/C=C\CO | > 100
Cc1c([N+](=O)[O-])ccc2c(NCCCN(C)C)ccnc12 | 37.2
N#Cc1nc2ccccc2nc1N1CCN(c2ccc([N+](=O)[O-])cc2)CC1 | > 100
N=C1/C(=C/c2ccc(F)cc2)C(=O)N=C2SC=NN12 | > 100
COC(=O)CC(C#N)(OP1(=O)OC(c2ccccc2)C(C)N1C)c1ccccc1 (configuration not stated) | > 100
CN1CCN(C(=O)CCNC(=O)Cc2ccc(C(=O)c3ccccc3)cc2)CC1 | > 100
CC(=O)c1cccc(NC(=O)C(=O)NNc2n[nH]c(=S)n2N)c1 | 18.7
O=c1cc(N2CCOCC2)[nH]c(=O)n1-c1ccc(F)cc1 | > 100
O=C(O)CC1NC(/C(=C/c2ccccc2)NC(=O)c2ccccc2)OC1=O (configuration not stated) | > 100
COCC1OC(Sc2ccccc2)C(O)C(OC)C1OC (configuration not stated) | > 100
CCCn1c2ccccc2c2ccc3c(c21)C(=O)C=CC3=O | 4.59
C=C(CCC/C(C)=C/C=C/[C@]1(C)CCCc2ccoc21)CC(=O)O | > 100
O=C1C2CC=CCC2C(=O)N1n1c(Cc2ccc(Cl)cc2)n[nH]c1=O (configuration not stated) | > 100
N#Cc1c(-c2ccc(Cl)cc2)c2c([nH]c1=O)-c1ccccc1SC2 | > 100

Tested on: OVCAR-4 ovarian
Experiment: growth of human tumour cells (NCI), 48 h

Structure (SMILES) | TGI [µM]
O=C(NC(Cc1c[nH]c2ccccc12)C(=O)Nc1ccc(Br)cc1)OCc1ccccc1 (configuration not stated) | 23.6
COC(=O)C1=C(C)NC2=C(C(=O)c3ccccc32)C1c1cn(-c2ccccc2)nc1-c1ccccc1 (configuration not stated) | > 100
Cc1cc(C)n2nc3nc(N)c(C#N)c(-c4ccccc4)c3c2n1 | > 100
CCCCCCCCCC1(N=[N+]=[N-])C(=O)c2ccccc2N(C)C1=O (configuration not stated) | > 100
CN(Cc1cnc2nc(N)nc(N)c2n1)c1ccc(C(=O)NC(CCC(=O)NCCC(P(=O)(O)O)P(=O)(O)O)C(=O)O)cc1 (configuration not stated) | > 100
C[N+](CCCl)(CCCl)Cc1cccc2cccc([N+](=O)[O-])c12 | > 100
O=C1NC(=O)C(c2c[nH]c3ccccc23)=C1c1cnc[nH]1 | > 100
CC(=O)O[C@H]1C[C@H]2[C@@H](OC(C)=O)/C=C3\C[C@](C)(C(=O)[C@H](O)C(=C1C)C2(C)C)[C@@H](O)C[C@@H]3OC(=O)[C@H](O)[C@H](c1ccccc1)N(C)C | > 100
Nc1ncnc2c1ccn2C/C=C\CO | > 100
Cc1c([N+](=O)[O-])ccc2c(NCCCN(C)C)ccnc12 | 41
N#Cc1nc2ccccc2nc1N1CCN(c2ccc([N+](=O)[O-])cc2)CC1 | > 100
N=C1/C(=C/c2ccc(F)cc2)C(=O)N=C2SC=NN12 | > 100
CN1CCN(C(=O)CCNC(=O)Cc2ccc(C(=O)c3ccccc3)cc2)CC1 | > 100
CC(=O)c1cccc(NC(=O)C(=O)NNc2n[nH]c(=S)n2N)c1 | 23.4
O=c1cc(N2CCOCC2)[nH]c(=O)n1-c1ccc(F)cc1 | > 100
O=C(O)CC1NC(/C(=C/c2ccccc2)NC(=O)c2ccccc2)OC1=O (configuration not stated) | > 100
COCC1OC(Sc2ccccc2)C(O)C(OC)C1OC (configuration not stated) | > 100
CCCn1c2ccccc2c2ccc3c(c21)C(=O)C=CC3=O | 4.07
C=C(CCC/C(C)=C/C=C/[C@]1(C)CCCc2ccoc21)CC(=O)O | > 100
